Tests used:
[1] = tested on: human myometrial microvascular endothelial cells (MEC); assay: Endothelial cell proliferation assay (CellTitre 96 MTS bioassay); type: cell-based; details: for effect of cAMP promoter on bFGF-stimulated MEC proliferation: IBMX 330 μM, dibutyryl cAMP 50 μM; for growth factor-stimulated MEC proliferation with combinations of HS and FCS in the medium: compared with HS alone (FIG. 3B); for dose dependence of stimulated MEC proliferation: concentration range 0.01-20 ng/ml (FIG. 6); for EC50 of growth factor-induced MEC proliferation: 6 days, absorbance as % of maximal response; for stimulation of MEC proliferation by maximal concentrations of growth factors: P5 MEC, M199 with 20% HS, 6 days (FIG. 5)
Method: The CellTitre 96 MTS tetrazolium-based bioassay (Promega, Madison, WT, USA), where the absorbance of the formazan product is directly proportional to the number of viable cells, was used to indirectly measure cell number after incubation of MEC with various mitogens. It was initially established that the MTS bioassay was linear from 0-2 ×10^4 MEC/well. MEC in basal M199 medium (M199 medium containing 5% PCS, 2 mM glutamine, antibiotic/antimycotic mixture) were seeded in triplicate onto fibronectin (10 μg/ml) coated wells of 96 well plates at 2000 cells/well and allowed to attach the quiesce for 36 hours at 37° C. in 5% CO2/air. Medium was replaced with the standard or complex M199 culture medium (day 0) with or without the following growth factors: 10 ng/ml vascular endothelial growth factor (VEGF121;gift from Dr J Abrahams, Scios Inc, Sunnyvale, Calif., USA), 0.01-20 ng/ml VEGF165 (R & D Systems, Minneapolis, Minn., USA) bFGF (0.01-10 ng/ml), 120 μg/ml EC growth factor (ECGF; Boehringer Mannheim) 50 ng/ml epidermal growth factor (EGF; R & D Systems), depending on the assay conditions being tested. In some experiments different concentrations of HS and FCS and combinations of both were tested and in other experiments various component of the complex medium were omitted. Cells were incubated at 37° C. in 5% CO2/air for 6 or 10 days, with medium changes every 2 days. Twenty μl 3-(4,5-dimethylthiazol-2-yl)-5-(3-carboxymethoxyphenyl)-2-(4sulphophenyl)-2H-tetrazolium (MTS) was added to the cells and incubated 2 hours at 37° C. and absorbance measured at 490 nm using a plate reader (Emax, Molecular Devices, Sunnyvale, Calif., USA). Absorbance was also measured on day 0 and this value subtracted from all results to determine MEC growth over 6 days.

[2] = tested on: human myometrial microvascular endothelial cells (MEC); assay: MEC migration assay (monolayer wound assay); type: cell-based; design: key to migration of MEC into denuded area, Early Passage MEC (P4) / migration of MEC into denuded area, Late Passage MEC (P12): +/−: very low; +: low; ++: medium; +++: high coverage of the denuded area; details: for migration of MEC in response to growth factor: 48 hour incubation in basal medium, high and low passage MEC; for migration of MEC into denuded area, Early Passage MEC (P4) / migration of MEC into denuded area, Late Passage MEC (P12): semi-quantitative coverage of denuded area after wounding, basal medium
Method: […] The medium was changed to basal medium, the MEC monolayers wounded using a plastic pasteur pipette and photographed using a Zeiss inverted phase contrast microscope. Duplicate wells were incubated with or without VEGF165 (10 ng/ml) or bFGF (5 ng/ml) in the presence and absence of 40 μg/ml rabbit anti human VEGF antibody (Gargett et al., 1999) or 50 μg/ml goat anti-human bFGF antibody (R & D Systems) respectively for 48 hours at 37° C. in 5% CO/air and the same field of view was rephotographed.
A characteristic feature of EC is their ability to migrate in response to certain growth factors (Goodman et al., 1985; Ferrara and DavisSmyth, 1997). The migration of early and late passage myometrial MEC in response to bFGF and VEGF was examined using the monolayer wound assay (Goodman el al., 1985) in the presence and absence of neutralising bFGF and VEGF antibodies.

[3] = over 10 days, 5 ng/ml bFGF, 15% HS/5% FCS (FIG. 4)
[4] = early (low) passage MEC (P1, P2, P3)
[5] = late (high) passage MEC (P10, P13)

With `C[C@]12CCC(=O)C=C1CC[C@@H]1[C@@H]2[C@@H](O)C[C@@]2(C)[C@H]1CC[C@]2(O)C(=O)CO` [Hydrocortisone, hydrocortisone, reference compound] the “effect on bFGF-induced myometrial MEC proliferation” value ([1]; in the presence or absence of IBMX or dibutyryl cAMP (results not shown)) was “no significant effect”.

With `CC(C)Cn1c(=O)n(C)c(=O)c2[nH]cnc21` [IBMX, 3-isobutyl-1-methyl xanthine, reference compound] the “effect of cAMP promoter on bFGF-stimulated MEC proliferation” value (from here on “effect of cAMP promoter”) [1, 3] was “significantly greater proliferation of myometrial MEC over 10 days in the absence”.

With `CCCC(=O)Nc1ncnc2c1ncn2[C@@H]1O[C@@H]2COP(=O)(O)O[C@H]2[C@H]1OC(=O)CCC` [dibutyryl cAMP, N-6, 2 ′-O-dibutyryl adenosine 3′,5′-cyclic monophosphate, reference compound] the “effect of cAMP promoter” value ([1]; after 5 days, 5 ng/ml bFGF (FIG. 4)) was “greater growth was observed in the absence” and the “effect of cAMP promoter” value [1, 3] was “significantly greater proliferation of myometrial MEC over 10 days in the absence”.

With “vascular endothelial growth factor [VEGF]” the “growth factor-stimulated MEC proliferation with combinations of HS and FCS in the medium” value [1] was “even greater levels of MEC proliferation”, the “dose dependence of stimulated MEC proliferation” value [1] was “dose dependent manner” and the “EC50 of growth factor-induced MEC proliferation” value (from here on “EC50”) [1, 4] was roughly 1.5 ng/mL. The “difference in absorbance between maximal and minimal response measured at day 6” value (shortened to “difference”) ([1]; high passage MEC, n=2) was 0.70, the “EC50” value [1, 5] was roughly 1.6 ng/mL and the “difference” value ([1]; low passage MEC, n=3) was 0.51 ±0.09. For the same compound, the “migration of MEC in response to growth factor” value [2] was “migrated into the denuded area to a comparable extent”, the “migration of MEC into denuded area, Early Passage MEC (P4)” value [2] was “+++” and the “migration of MEC into denuded area, Late Passage MEC (P12)” value [2] was “+++”.

“EGF: epidermal growth factor (R & D Systems) (NSDSECPLSHDGYCLHDGVCMYIEALDKYACNCVVGYIGERCQYRDLKWWELR; Epidermal growth factor; UniProt P01133 971-1023, looked up)” was tested, and the “stimulation of MEC proliferation by maximal concentrations of growth factors” value [1] was “weakly mitogenic”.

For “bFGF: mitogen, growth factor (Gibco BRL)”, the “stimulation of MEC proliferation by maximal concentrations of growth factors” value [1] was “maximal stimulation of MEC proliferation”, the “growth factor-stimulated MEC proliferation with combinations of HS and FCS in the medium” value [1] was “even greater levels of MEC proliferation” and the “dose dependence of stimulated MEC proliferation” value [1] was “dose dependent manner”. For the same compound, the “EC50” value [1, 4] was roughly 0.6 ng/mL, the “difference” value ([1]; high passage MEC, n=2) was 0.82 and the “EC50” value [1, 5] was roughly 0.9 ng/mL. For the same compound, the “difference” value ([1]; low passage MEC, n=3) was 0.50 ±0.07, the “migration of MEC in response to growth factor” value [2] was “migrated into the denuded area to a comparable extent” and the “migration of MEC into denuded area, Early Passage MEC (P4)” value [2] was “+++”. For the same compound, the “migration of MEC into denuded area, Late Passage MEC (P12)” value [2] was “++”.
